Test results: patent US20250354115A1, “METHOD FOR PRODUCING STEM CELLS AND METHOD FOR PRODUCING GAMMA DELTA T CELLS” (I Peace, Inc., priority 2022, published 2025)

Assays:
[1] = test system: Human peripheral blood mononuclear cells; assay: iPS cell induction from mononuclear cells in PTA-containing medium (Example 1); type: cell-based; details: IL-2 added daily
Description: A PTA-containing medium according to Example 1 was prepared using RPMI 1640 medium (Gibco) containing […] of tetrakis-pivaloyloxymethyl-2-(thiazol-2-ylamino) ethylidene-1, 1-bisphosphonate (PTA, Techno Suzuta), 10% fetal bovine serum (Life Technologies), 1.0×10^−5 mol/L 2-mercaptoethanol (Nacalai Tesque), 100 U/mL penicillin, and 100 μg/mL streptomycin (Life Technologies).
Human peripheral blood mononuclear cells were added to the PTA-containing medium according to Example 1, and a medium containing approximately 1×10^6 mononuclear cells was placed into a 24-well plate (Day 1). […] On Day 3, the medium containing cells was collected from the plate, centrifuged, and the supernatant was removed. Then, 2 mL of fresh PTA-containing medium according to Example 1 was added to the cells, and 1 mL of the medium was placed into two wells of a 24-well plate.
On Day 6, the medium containing cells was collected from the plate, centrifuged, and the supernatant was removed. Then, the PTA-containing medium according to Example 1 was added to the cells, and a medium containing 2×10^4 mononuclear cells was placed into a 96-well plate. KLF4, OCT3/4, SOX2, and c-MYC were introduced into the cells using MSRV (Tokiwa Bio). […]
Additionally, genomic DNA was extracted from the iPS cells, and the presence of the recombined Vγ9 gene was analyzed by PCR and electrophoresis. […]

[2] = test system: γδ T cell receptor (TCR); assay: Stimulation of iPS-derived T cell progenitors through the γδ T cell receptor, flow cytometry (Example 5); type: cell-based, human; details: day 35; HMBPP 0.01 μg/mL to 1 μg/mL or zoledronic acid 5 μmol/L; no marker expression without stimulants; FIG. 11
Description: αMEM medium supplemented with a final concentration of 20% FBS and 1% penicillin/streptomycin was prepared as an OP9 cell culture medium.
OP9 cell culture medium supplemented with a final concentration of 100 mmol/L vitamin C, 10 ng/ML IL-7, 10 μg/mL FLT3 ligand, and 10 μg/mL stem cell factor (SCF) was prepared as a differentiation induction medium.
A dish on which OP9 cells were cultured was prepared as the feeder cells. The OP9 cells were cultured in the OP9 medium. Multiple cell clusters of iPS cells were seeded onto the feeder cells, and stem cell medium containing 10 μmol/L Y27632 was added. The cells were cultured for two days. On the second day, the medium was replaced with the OP9 medium supplemented with vitamin C, and the cells were cultured for an additional 12 days. On days 5, 9, and 13, half of the medium was removed from the dish and replaced with fresh OP9 medium supplemented with vitamin C.
During the 14-day culture, the differentiation of iPS cells into hematopoietic progenitor cells was observed. The cells were confirmed to be positive for CD34 and CD43, which are markers of hematopoietic cells. […]
It was confirmed that CD3 and γδ TCR (Vγ9) were expressed on the surface of the cells. […] In the negative control, where no stimulants were added, no marker expression was detected.

| SMILES | presence of the recombined Vγ9 gene in the iPS cells by PCR and electrophoresis ([1]; FIG. 3) | colonies of iPS cells on Day 14 ([1]; KLF4, OCT3/4, SOX2, c-MYC introduced using MSRV, MOI 5) | CD3 and γδ TCR (Vγ9) expression on the surface of the cells [2] |
| --- | --- | --- | --- |
| CC(C)(C)C(=O)OCOP(=O)(OCOC(=O)C(C)(C)C)C(CNc1nccs1)P(=O)(OCOC(=O)C(C)(C)C)OCOC(=O)C(C)(C)C [PTA, tetrakis-pivaloyloxymethyl-2-(thiazol-2-ylamino) ethylidene-1,1-bisphosphonate] | confirmed to possess a recombined Vγ9 gene with a JP gene | multiple colonies | – |
| C/C(=C\COP(=O)(O)OP(=O)(O)O)CO [HMBPP, (E)-4-hydroxy-3-methyl-but-2-enyl pyrophosphate] | – | – | expressed |
